Assay [1] relates to mice with high uric acid levels. The assay is described as follows: Evaluation of uric acid-lowering effect in high uric acid mouse models (blood uric acid, blood creatinine, serum urea nitrogen). The settings on record: 100 mg/kg of body weight, mean ± SD, n = 6. Type of assay: in vivo, C57BL/6 mice. As to the method:
(§1) C57BL/6 mice (16.7-20.4 g, 6-7 weeks old) were provided by the Guangdong Medical Laboratory Animal Center, and quarantined for 4 days before the trial. During the trial, the mice were kept in a house with stable conditions with a 12 h:12 h light-dark cycle and given ad libitum access to food and water.
The mice were divided according to their weights into a negative control group (normal mice), a model control group (mice with high uric acid levels), a positive control group (mice with high uric acid levels, administrated with allopurinol tablets), a low-dosage group (mice with high uric acid levels, […] acid), and a high-dosage group (mice with high uric acid levels, […]), six mice in each group. The mice of each group were treated with a corresponding solution through intragastric administration with a dosage of 20 mL per kg of body weight, wherein the mice of the positive control group were treated with a 5 mg/mL allopurinol solution, the mice of the negative control group and the model control group were treated with purified water, one administration per day. […] The mice were treated for 30 successive days.
Method for preparing OP1 samples: 45 mg of the okra polygalacturonic acid was weighed out and mixed well with a certain volume of purified water. The mixture was further added with purified water to a final volume of 4.5 mL to give a 10 mg/mL high-dosage solution, which shall be shaken well before used. 0.9 mL of the high-dosage solution was added with purified water to a final volume of 3.6 mL and mixed well to give a 2.5 mg/mL low-dosage solution, which shall be shaken well before used. […]
(§2) 3 hours after the last administration, the mice were anaesthetized using isoflurane, and blood was collected from each mouse by removing eyeballs. […] Blood uric acid levels, blood creatinine levels, and serum urea nitrogen levels were measured by an automatic biochemical analyzer, and XOD activities were determined using an ELISA kit.

Assay [2] concerns XOD. Put plainly: Serum XOD activity of high uric acid mouse models, determined using an ELISA kit. Type of assay: in vivo, C57BL/6 mice. The settings on record: high uric acid mice, 100 mg/kg of body weight, intragastric, 30 days, mean ± SD, n = 6. As to the method: as §1
The mice were divided according to their weights into a negative control group (normal mice), a model control group (mice with high uric acid levels), a positive control group (mice with high uric acid levels, administrated with allopurinol tablets), a low-dosage group (mice with high uric acid levels, administrated with 50 mg/kg of the okra polygalacturonic acid), and a high-dosage group (mice with high uric acid levels, administrated with 200 mg/kg of the okra polygalacturonic acid), six mice in each group. […]
as §2

In assay [1] (intragastric, 30 days), `Oc1ncnc2[nH]ncc12` [Positive control, allopurinol] came in with a blood creatinine of 30.2 ± 5.7 µmol/L and a serum urea nitrogen of 23.3 ± 4.1 mmol/L. The Blood uric acid in assay [1] (one intragastric administration per day for 30 days, serum 3 hours after last administration) came to 134.8 ± 19.9 µmol/L. The compound further had an XOD activity in assay [2] of 19.8 ± 2.2 U/L.

Source of the values: patent US11479616B2, “Method for preparing okra polygalacturonic acid having uric acid-lowering effect” (Institute of Biological and Medical Engineering, Guangdong …, priority 2020, dated 2022).
